Earlier results on one compound are cited in publication PMC10406726, “Development, scrutiny, and modulation of transient reporter gene assays of the xenobiotic metabolism pathway in zebrafish hepatocytes” (Cell Biology and Toxicology, 2021).

Molecules are shown by their SMILES. Where two headings read alike, the source gives them in different places.

Common to all, as to design: method as in ToxCast database, CompTox dashboard
Series [1] concerns FOS (FBJ murine osteosarcoma viral oncogene homolog). As to conditions: ATG_AP_1_CIS_up; ref ToxCast database, CompTox dashboard; cited from earlier work.
In series [2] the test system is NR1I2 (nuclear receptor subfamily 1, group I, member 2). As to conditions: ATG_PXRE_CIS_up; ref ToxCast database, CompTox dashboard; cited from earlier work.
The test system is the same in series [3]. As to conditions: ATG_PXR_TRANS_up; ref ToxCast database, CompTox dashboard; cited from earlier work.
Series [4] concerns AHR (aryl hydrocarbon receptor). Particulars: TOX21_AhR_LUC_Agonist; ref ToxCast database, CompTox dashboard; cited from earlier work.
Series [5] concerns NR1I3 (nuclear receptor subfamily 1, group I, member 3). As to conditions: TOX21_CAR_Agonist; ref ToxCast database, CompTox dashboard; cited from earlier work.
The subject of series [6] is NFE2L2 (nuclear factor, erythroid 2-like 2). Particulars: ATG_NRF2_ARE_CIS_up; ref ToxCast database, CompTox dashboard; cited from earlier work.
Series [7] concerns PPARG (peroxisome proliferator-activated receptor gamma). As to conditions: ATG_PPARg_TRANS_up; ref ToxCast database, CompTox dashboard; cited from earlier work.
For series [8], the target named is ESR1 (estrogen receptor 1). As to conditions: TOX21_ERa_LUC_VM7_Agonist; ref ToxCast database, CompTox dashboard; cited from earlier work.
Series [9] addresses GLI3 (DNA binding). As to conditions: TOX21_SSH_3T3_GLI3_Agonist; ref ToxCast database, CompTox dashboard; cited from earlier work.
Series [10] has as its system ARE (channel 1). As to conditions: TOX21_ARE_BLA_Agonist_ch1; ref ToxCast database, CompTox dashboard; cited from earlier work.
The target of series [11] is ESR1 (estrogen receptor 1). As to conditions: ATG_ERE_CIS_up; ref ToxCast database, CompTox dashboard; cited from earlier work.
For series [12], the target named is AR (androgen receptor). As to conditions: TOX21_AR_LUC_MDAKB2_Agonist; ref ToxCast database, CompTox dashboard; cited from earlier work.

One may read the AC50 as the concentration at which the activity in the assay is half-maximal. As to `O=c1cc(-c2ccccc2)oc2ccc3ccccc3c12` [BNF, β-naphthoflavone], the AC50 is 156 nM in [1]; 2240 nM in series [2]; 6.58 µM in series [3]; […] in [4]; 6.07 µM in [5]; 157 nM in [6]. The AC50 in series [7] was 750 nM; in series [8], 5.15 µM; in [9], 33.9 nM; in series [10] it was 837 nM; in series [11], 1060 nM; in [12], 5.43 µM.
